In patent publication US20160377605A1, “LYSOSOMAL ATP SELECTIVE TWO-PHOTON ABSORBING FLUORESCENT PROBE” (POSTECH ACADEMY-INDUSTRY FOUNDATION, priority 2015, published 2016):

Tests used:
[1] = system: lysosomal ATP in rat brain tissue; assay: Two-photon microscopic imaging of rat brain tissue treated with fluorescent probe; conditions: rat brain tissue slice, 30 μM, 20 minutes, 780 nm two-photon excitation
Experimental: The present inventors treated a rat brain tissue with Compound 4 (R1═R2═H), which is the fluorescent probe according to embodiments of the present invention and observed the changes in fluorescence through two-photon fluorescence microscopy, and the results are provided in FIG. 8. The scale bar in FIG. 8 is 80 μm.
Specifically, to obtain a two-photon fluorescence microscopic image of a rat tissue treated with Compound 4, an experiment was carried out under a condition of isolated from light (in a dark room) using a […] rat (5 weeks old, male, Samtako Inc.). The brain of the rat was dissected and washed with a PBS buffer solution, and then the individual organs were frozen with dry ice for 5 minutes. The frozen organs were broken with a hammer, and 50 μm-thick tissue slice samples were prepared using a cryostat machine (CM3000, Leica). […] The fluorescence was observed through two-photon fluorescence microscopy. The two-photon fluorescence microscope was configured with a 20× objective lens (HCX APO L 20×/1.00 W, Leica, Germany), and the observation was carried out using a Ti: Sapphire laser (Chameleon Ultra II, Coherent) with 6 mW laser output and at a 780 nm two-photon excitation wavelength.

[2] = Absorption characteristic of fluorescent probe with and without ATP; format: physicochemical; conditions: 10 μM, pH 5.5 PBS (0.1% acetonitrile)
Experimental: Specifically, to observe the absorption characteristic of the fluorescent probe, the present inventors measured an absorbance spectrum by filling, with a pH 5.5 PBS solution (with 0.1% acetonitrile) comprising 10 μM Compound 4, a quartz fluorescence cell (114F-QS, Hellma Analytics) with a 1 cm light path, and a graph of the absorbance (y-axis) with respect to the wavelength (x-axis) is shown in FIG. 1A. In addition, another absorbance spectrum was measured by filling a quartz fluorescence cell (114F-QS, Hellma Analytics) with a 1 cm light path with a pH 5.5 PBS solution (with 0.1% acetonitrile) comprising 10 μM Compound 4 and 1 mM ATP, and a graph of the absorbance (y-axis) with respect to the wavelength (x-axis) is shown in FIG. 1B. […] On the other hand, in FIG. 1B in which ATP was detected, a new absorption was observed near 540 nm in addition to 400 nm. The absorbance spectra were obtained using the HP 8453 UV/Vis spectrophotometer.

[3] = system: lysosomal ATP in HeLa cells; assay: Lysosomal selectivity: colocalization with LysoTracker by one-photon and two-photon fluorescence microscopy; format: cell-based, human
Experimental: The present inventors treated HeLa cells with Compound 4 (R1═R2═H), which is a fluorescent probe, examined a fluorescence emission phenomenon through two-photon fluorescence microscopy, and assessed lysosomal selectivity by treating the cells also with LysoTracker (Life Technologies Corp.), which is a lysosome marker widely used to assess lysosomal selectivity, and then performing one-photon and two-photon fluorescence microscopy. The scale bar in FIG. 6 is 25 μm.
Each cell was cultured in Minimum Essential Medium with Earle's Balanced Salts (MEM/EBSS) of Hyclone™ GE Healthcare Life Sciences and a Dulbecco's modified Eagle's medium (DMEM), and the culture was carried out at 37° C. […] The cells prepared as thus were observed through two-photon fluorescence microscopy to obtain fluorescence images, and the two-photon fluorescence microscopic images were obtained at a 780 nm excitation wavelength and through a laser power of 4 mW respectively in the blue channel (440-490 nm), yellow channel (550-600 nm), and red channel (650-700 nm). […]
The experiment was repeated with LysoTracker Deep Red (Life Technologies Corp.). HeLa cells were treated with LysoTracker, and then a fluorescence image thereof was obtained with a one-photon fluorescence microscope (TCS SP5 II, Leica, Germany). […]

[4] = Selectivity of ATP detection among various cations and anions (fluorescence ratio); conditions: 10 μM, pH 5.5 PBS, analytes at 1 mM
Experimental: In order to examine the selectivity of Compound 4 in ATP detection, the present inventors measured a fluorescence spectrum (the fluorescence spectrum was obtained using a Photon Technical International Fluorescence System) by filling a quartz fluorescence cell (114F-QS, Hellma Analytics) with a 1 cm light path with a pH 5.5 PBS solution (with 0.1% acetonitrile) comprising Compound 4 at 10 μM and various cations and anions (ATP, ADP, AMP, cytidine triphosphate (CTP), uridine triphosphate (UTP), guanosine triphosphate (GTP), thymine triphosphate (TTP), […] (PPi), phosphoric acid (H3PO4), nitrate anions (NO3^−), phosphate anions (PO4^3−), dithionite ion (S2O4^2−), sulfate ion (SO4^2−), acetate ion, nitrite ion (NO2^−), perchlorate ions (ClO4^−), citrate ions, monohydrogen phosphate ions (HPO4^2−), cyanide ions (CN^−), nickel ions (Ni^+), silver ions (Ag^+), manganese ions (Mn^2+), palladium ions (Pd^2+), cadmium ions (Cd^2+), cobalt ions (Co^3+), iron ions (Fe^+), zinc ion (Zn^2+), copper ion (Cu^2+), potassium ion (K^+), magnesium ion (Mg^2+), calcium ions (Ca^2+), sodium ions (Na^+), lead ions (Pb^2+), and chromium ions (Cr^3+)) at 1 mM, and the fluorescence ratios (y-axis) for various analytes (x-axis) were provided in FIG. 4.

HeLa cells = assay: MTT assay cytotoxicity / cell viability; format: cell-based
Experimental: The present inventors examine the cytotoxicity of Compound 4 (R1═R2═H), which is the fluorescent probe according to embodiments of the present invention, by treating HeLa cells (human uterine cancer cells) with the compound, and the results are provided in FIG. 5.
To examine the cytotoxicity of Compound 4, an MTT assay was conducted on the HeLa cells and the cell viability was assessed.
Specifically, the cells (100 μL/well) were prepared in a 96-well plate at the density of about 5×10^3 cells per well. The cells were treated with Compound 4 at the concentration of 10, 30, 50, or 100 μM, cultured for 1 hour, and then washed with a PBS buffer solution. 25 μL of a 5 mg/mL 3-(4,5-[…])-2,5-diphenyltetrazolium bromide (MTT) solution was put in each well. After culturing for 2 hours at 37° C., the medium was removed, formazan crystals were dissolved in dimethyl sulfoxide (DMSO), and the absorbance was measured using a plate reader. According to FIG. 5, Compound 4 was confirmed to have low cytotoxicity up to the concentration of 10 μM within 24 hours (about 8% of the cells died). In addition, even when the concentration of Compound 4 was increased to 100 μM, it was confirmed that cytotoxicity within 8 hours was low (about 20% of the cells died), which indicated the possibility of conducting experiments in the corresponding range.

[5] = Fluorescence ATP detection characteristic, ratiometric, in PBS solution
Experimental: Specifically, to observe the ATP detection characteristic of Compound 4, the present inventors measured a fluorescence spectrum (the fluorescence spectrum was obtained using a Photon Technical International Fluorescence System) by filling a quartz fluorescence cell (114F-QS, Hellma Analytics) with a 1 cm light path with a pH 5.5 PBS solution (with 0.1% acetonitrile) comprising 10 μM Compound 4 and ATP (0.0-1.0 mM), and graphs of the normalized fluorescence intensity (y-axis) with respect to the wavelength (x-axis) are shown in FIG. 2A. […] In addition, to assess the feasibility of quantification by a ratiometric detection system, the correlation between the ATP concentration (x-axis) and the fluorescence ratio (the ratio between two types of fluorescence) (y-axis) was provided in FIG. 2B. As appears in FIG. 2B, the proportional relationship between the ATP concentration and the ratio between two types of fluorescence proves the feasibility of quantification by a ratiometric detection system.
In order to assess the correlation between the ATP detection by Compound 4 and the pH of the solution, the present inventors measured a fluorescence spectrum (the fluorescence spectrum was obtained using a Photon Technical International Fluorescence System) by filling a quartz fluorescence cell (114F-QS, Hellma Analytics) with a 1 cm light path with a PBS solution (with 0.1% acetonitrile) with a pH range of 4.0 to 8.0 comprising 10 μM Compound 4 and ATP (0.0-1.0 mM), and graphs of the fluorescence ratio (y-axis) with respect to the pH (x-axis) are shown in FIG. 3A. According to FIG. 3A, the detectability changed with pH. It was observed that ATP was detected only under acidic conditions (pH 4.8-5.8) of lysosomes, which are the only organelles maintaining acidic conditions in cells, and was not detected at near-neutral pH (pH 7.0-7.5), which corresponds to the pH of most cells. In addition, the fluorescence ratio (y-axis) that changes with respect to the ATP concentration (x-axis) is provided for the pH range of 4.5 to 5.5 in FIG. 3B.

CCNc1cc2c(cc1C)C1(c3cc(C)c(NCC)cc3O2)c2ccccc2C(=O)N1CCNCCNCCNC1=C2C=CC=[N+]2[B-](F)(F)n2cccc21 [Compound 4, 10-((2-((2-((2-(3′,6′-bis(ethylamino)-2′,7′-dimethyl-3-oxospiro[isoindoline-1,9′-xanthen]-2-yl)ethyl)amino)ethyl)amino)ethyl)amino)-5,5-difluoro-5H-dipyrrolo[1,2-c:2′,1′-f][1,3,2]diazaborinin-4-ium-5-uide]
detection of lysosomal ATP in deep tissue [1]: selectively detected lysosomal ATP
new absorption wavelength when ATP was detected ([2]; 1 mM ATP, in addition to 400 nm): ~540 nm
single absorption wavelength of the fluorescent probe ([2]; no ATP): ~400 nm
lysosomal selectivity [3]: highly selective to lysosomes
colocalization factor with LysoTracker ([3]; 10 μM Compound 4 and 50 nM LysoTracker, 1 hour): about 0.95
selectivity in ATP detection among various cations and anions [4]: highly selective to ATP
cytotoxicity, cells died (HeLa cells; 100 μM, within 8 hours): about 20%
cytotoxicity, cells died (HeLa cells; up to 10 μM, within 24 hours): about 8%
pH range in which ATP was detected ([5]; 10 μM, PBS pH 4.0 to 8.0, ATP 0.0-1.0 mM, acidic conditions of lysosomes): 4.8-5.8 pH
change of fluorescence intensity near 550 nm as ATP concentration increased ([5]; 10 μM, pH 5.5 PBS (0.1% acetonitrile), ATP 0.0-1.0 mM): greatly increased
ATP detection at near-neutral pH ([5]; pH 7.0-7.5, 10 μM, ATP 0.0-1.0 mM): not detected
